# Tests used:
# [1] = tested on: lipid absorption; assay: Amount of triglyceride (lipid) absorption from the digestive tract into blood; type: in vivo; conditions: male Balb/c mouse, oral 14C-triolein, plasma radioactivity 6 hours after administration, relative to control = 1; FIG. 4
# Experimental: Triolein (Amersham, 100 μCi/mL) radiolabeled with ^14C was mixed with 1% (w/v) sodium carboxylmethyl cellulose (CMC-Na) and 1% (v/v) Tween 80, and then 0.1 mL of the mixture was forcibly administered into each mouse through an oral zonde so that 1 μCi could be delivered to each mouse. Here, the mouse in the control group (an 8-week old male Balb/c with body weight of 25 g) was treated with 400 μg of Orlistat (20 mg/kg), which is used as an obesity treatment, and the mouse in the experimental group (an 8-week old male Balb/c with body weight of 25 g) was treated with 0.5 mL of the water extract (50 mg/mL) of Laetiporus sulphureus prepared in the Example after concentrating it into 0.1 mL. Six hours after the administration, blood samples were collected from the mice, and plasma was obtained by centrifuging the blood at 40° C. at the rate of 14000 rpm, and the radioactive dose was measured by a liquid scintillator (Beta counter, Beckman LS1801). The control group was not treated with anything. The amount of lipid absorption was determined as a relative value by dividing the radioactive dose of each group into the radioactive dose of the control group, in which the radioactive dose of the control group was set at ‘1’.
# [2] = tested on: cholesterol absorption; assay: Amount of cholesterol absorption from the digestive tract into blood; type: in vivo; conditions: male Balb/c mouse, oral 3H-cholesterol oleate, plasma radioactivity 6 hours after administration, relative to control = 1; FIG. 3
# Experimental: Cholesterol oleate (Amersham, 100 μCi/mL) radiolabeled with ^3H was mixed with 1% (w/v) sodium carboxylmethyl cellulose (CMC-Na), 1% (v/v) Tween 80, and a non-labeled cholesterol oleate, and then 0.1 mL of the mixture was forcibly administered into each mouse through an oral zonde so that 1 μCi could be delivered to each mouse. Here, the mouse in the control group (an 8-week old male Balb/c with body weight of 25 g) was treated with 400 μg of Orlistat (20 mg/kg), which has an inhibitory effect against cholesterol absorption, and the mouse in the experimental group (an 8-week old male Balb/c with body weight of 25 g) was treated with […] of Laetiporus sulphureus prepared in the Example after concentrating it into 0.1 mL. Six hours after the administration, blood samples were collected from the mice, and plasma was obtained by centrifuging the blood at 40° C. at the rate of 14000 rpm, and the radioactive dose was measured by a liquid scintillator (Beta counter, Beckman LS1801). The Control group was not treated with anything that may inhibit the absorption of cholesterol. The amount of cholesterol absorption was determined as a relative value by dividing the radioactive dose of each group into the radioactive dose of the control group, in which the radioactive dose of the control group was set at ‘1’.
smiles,measurement,setting,value
CCCCCCCCCCC[C@@H](C[C@@H]1OC(=O)[C@H]1CCCCCC)OC(=O)[C@H](CC(C)C)NC=O [Orlistat],inhibitory effect upon lipid absorption,[1],significant inhibitory effect
same,inhibitory effect upon cholesterol absorption,[2],significant inhibitory effect

# — patent US20140356393A1, “COMPOSITION FOR TREATMENT OR PREVENTION OF HYPERLIPIDEMIA, CONTAINING WATER EXTRACTS OF LAETIPORUS SULPHUREUS” (POSTECH ACADEMY-INDUSTRY FOUNDATION, priority 2011, published 2014)
